Measured values taken from ChEMBL document CHEMBL5661983, “The selective anaplastic lymphoma receptor tyrosine kinase inhibitor ASP3026 induces tumor regression and prolongs survival in non-small cell lung cancer model mice” (Mol Cancer Ther, 2014).
Activity calls are given as the source filed them. The rule behind the calls is not given here.

How the values were obtained:
[1] = tested on: NCI-H2228; experiment: Antitumor activity against human NCI-H2228 cells xenografted in NOD.CB17-Prkdcscid/J mouse assessed as reduction in tumor volume at 50 mg/kg, iv administered daily for 5 days; format: functional, organism-based; conditions: time 5.0 day
[2] = Toxicity in human NCI-H2228 cell xenografted NOD.CB17-Prkdcscid/J mouse assessed as body weight loss at 50 mg/kg, iv administered once daily for 5 days; format: organism-based; conditions: in vivo, 120 h, time 5 day
[3] = tested on: NCI-H2228; experiment: Antitumor activity against human NCI-H2228 cells xenografted in NOD.CB17-Prkdcscid/J mouse assessed as increase in tumor regression at 12 mg/kg, iv administered daily for 5 days; format: functional, organism-based; conditions: time 5.0 day

Row | SMILES | Activity [1] | Activity [2] | Activity [3]
1 | Nc1nc2[nH]cc(CCc3ccc(C(=O)N[C@@H](CCC(=O)O)C(=O)O)cc3)c2c(=O)[nH]1 [PEMETREXED] | Active | Toxic | –
2 | CC(=O)O[C@H]1C(=O)[C@@]2(C)[C@H]([C@H](OC(=O)c3ccccc3)[C@]3(O)C[C@H](OC(=O)[C@H](O)[C@@H](NC(=O)c4ccccc4)c4ccccc4)C(C)=C1C3(C)C)[C@]1(OC(C)=O)CO[C@@H]1C[C@@H]2O | – | – | Active
